# Measurements published in patent US20220409620A1, “REDUCING IMMUNOGENICITY TO PEGLOTICASE” (Horizon Pharma Rheumatology LLC, priority 2016, published 2022).
# Test system: adult patients with uncontrolled gout
# Experiment: Serum uric acid (sUA) levels and sUA responder rate, open-label study of pegloticase with MTX (MIRROR OL)
# Type: in vivo, human
# Conditions: mITT Population
# Description: The primary objective is to estimate the response rate during Month 6 (Weeks 20, 22, and 24), as measured by the sustained normalization of serum uric acid (SUA) to <6 mg/dL for at least 80% of the time during Month 6 in subjects receiving KXX with MTX.
# The primary efficacy outcome endpoint is the sustained normalization of SUA to <6 mg/dL for at least 80% of the time during month 6 (weeks 20, 22, and 24) in subjects receiving KXX with MTX. […] Participants who achieve this endpoint were classified as “responders.” Serum uric acid (SUA) responders may also be defined as participants achieving and maintaining SUA <6 mg/dL for at least 80% of the time during Month 6 (Weeks 20, 22, and 24).
# Blood samples may be collected prior to each pegloticase infusion for measurement of SUA levels using the Beckman Coulter AU System Uric Acid procedure. Participants were declared “non-responders” if there were SUA measures >6 mg/dL at 2 consecutive study visits beginning with the week 2 visit. […] This assumption and subsequent discontinuation of pegloticase was consistent with the protocol of large phase III randomized controlled trials and the product label. A formal stopping rule was 2 occasions of SUA levels of greater than 6 mg/dL.
# Clinical Chemistry—Blood samples were collected prior to each pegloticase infusion for measurement of SUA levels (primary efficacy parameter) using the Beckman Coulter AU System Uric Acid procedure. In this procedure uric acid is converted to hydrogen peroxide. Hydrogen peroxide reacts with reagent to produce a chromophore which is read bichromatically at 660/800 nm. The amount of dye formed is proportional to the uric acid concentration in the sample.
# Serum samples for measurement of SUA levels were collected at the Screening Visit, the Week −4 Visit (prior to the first dose of MTX), and the Week −2 Visit during the MTX Run-in Period; within 48 hours prior to each pegloticase infusion and after the end of each pegloticase infusion prior to discharge from the site during the Pegloticase+IMM Period; at the non-infusion Week 52/End of Study/Early Termination Visits and at the Post Treatment 3 and 6 Month Follow-up Visits. Additional serum samples for SUA levels were collected at optional non-infusion (Frequent Sampling) Visits at Weeks 1 and 7. […] Subjects with SUA level >6 mg/dL at 2 consecutive visits beginning at Week 2 visit discontinued treatment, completed the End of Pegloticase Infusion Visit procedures within 2 weeks and continued the subject visits according to the protocol (without treatment).
# Efficacy analyses were performed using the modified intention-to-treat (mITT) population, defined as all enrolled subjects who received ≥1 dose of pegloticase. The proportion of Month 6 responders was summarized, along with a 95% confidence interval for the proportion. The proportion of Month 3 and overall (Months 3 and 6 combined) responders was analyzed similarly.
# A subject was declared a non-responder if the subject had SUA level >6 mg/dL at 2 consecutive study visits beginning with the Week 2 Visit. In addition, a subject who withdraws from study treatment for any reason after the first dose of pegloticase in the KXX+MTX Period and prior to Month 6 (for the primary endpoint) or Month 3 (for the secondary endpoint) was considered a non-responder if SUA values were not collected at the planned time points.
# Patients were administered oral MTX (15 mg/week) and folate (1 mg/day) 4 weeks prior to the first pegloticase infusion (Day 1) and throughout the pegloticase treatment period. Blood was drawn prior to each infusion to measure sUA level, monitor clinical parameters, and examine for ADA development. All patients followed typical IR prophylaxis protocols (fexofenadine one day before and the morning of each infusion and acetaminophen and IV corticosteroid the morning of each infusion).
substance,measurement,setting,value
pegloticase,"Serum Uric Acid, Change from Baseline, Mean (SD)",Week 20 - Post-Infusion,−8.97 (2.810) mg/dL
same,"Serum Uric Acid, Change from Baseline, Median",Week 20 - Post-Infusion,-8.80 mg/dL
same,"Serum Uric Acid, Observed, Mean (SD)",Week 20 - Post-Infusion,0.30 (0.000) mg/dL
same,"Serum Uric Acid, Observed, Median",Week 20 - Post-Infusion,0.30 mg/dL
same,"sUA <6 mg/dL, n (%)",Week 20 - Post-Infusion,11 (100%)
same,"Serum Uric Acid, Change from Baseline, Mean (SD)",Week 20 - Pre-Infusion,−8.97 (2.810) mg/dL
same,"Serum Uric Acid, Change from Baseline, Median",Week 20 - Pre-Infusion,-8.80 mg/dL
same,"Serum Uric Acid, Observed, Mean (SD)",Week 20 - Pre-Infusion,0.30 (0.000) mg/dL
same,"Serum Uric Acid, Observed, Median",Week 20 - Pre-Infusion,0.30 mg/dL
same,"sUA <6 mg/dL, n (%)",Week 20 - Pre-Infusion,11 (100%)
same,"Serum Uric Acid, Change from Baseline, Mean (SD)",Week 22 - Post-Infusion,−8.97 (2.810) mg/dL
same,"Serum Uric Acid, Change from Baseline, Median",Week 22 - Post-Infusion,-8.80 mg/dL
same,"Serum Uric Acid, Observed, Mean (SD)",Week 22 - Post-Infusion,0.30 (0.000) mg/dL
same,"Serum Uric Acid, Observed, Median",Week 22 - Post-Infusion,0.30 mg/dL
same,"sUA <6 mg/dL, n (%)",Week 22 - Post-Infusion,11 (100%)
same,"Serum Uric Acid, Change from Baseline, Mean (SD)",Week 22 - Pre-Infusion,−8.97 (2.810) mg/dL
same,"Serum Uric Acid, Change from Baseline, Median",Week 22 - Pre-Infusion,-8.80 mg/dL
same,"Serum Uric Acid, Observed, Mean (SD)",Week 22 - Pre-Infusion,0.30 (0.000) mg/dL
same,"Serum Uric Acid, Observed, Median",Week 22 - Pre-Infusion,0.30 mg/dL
same,"sUA <6 mg/dL, n (%)",Week 22 - Pre-Infusion,11 (100%)
same,"Serum Uric Acid, Change from Baseline, Mean (SD)",Week 24 - Post-Infusion,−9.18 (4.135) mg/dL
same,"Serum Uric Acid, Change from Baseline, Median",Week 24 - Post-Infusion,-9.30 mg/dL
same,"Serum Uric Acid, Observed, Mean (SD)",Week 24 - Post-Infusion,0.30 (0.000) mg/dL
same,"Serum Uric Acid, Observed, Median",Week 24 - Post-Infusion,0.30 mg/dL
same,"sUA <6 mg/dL, n (%)",Week 24 - Post-Infusion,5 (100%)
same,"Serum Uric Acid, Change from Baseline, Mean (SD)",Week 24 - Pre-Infusion,−8.97 (2.810) mg/dL
same,"Serum Uric Acid, Change from Baseline, Median",Week 24 - Pre-Infusion,-8.80 mg/dL
same,"Serum Uric Acid, Observed, Mean (SD)",Week 24 - Pre-Infusion,0.30 (0.000) mg/dL
same,"Serum Uric Acid, Observed, Median",Week 24 - Pre-Infusion,0.30 mg/dL
same,"sUA <6 mg/dL, n (%)",Week 24 - Pre-Infusion,11 (100%)
same,"Serum Uric Acid, Change from Baseline, Mean (SD)",Week 26 - Pre-Infusion,−9.11 (3.293) mg/dL
same,"Serum Uric Acid, Change from Baseline, Median",Week 26 - Pre-Infusion,-8.95 mg/dL
same,"Serum Uric Acid, Observed, Mean (SD)",Week 26 - Pre-Infusion,0.30 (0.000) mg/dL
same,"Serum Uric Acid, Observed, Median",Week 26 - Pre-Infusion,0.30 mg/dL
same,"sUA <6 mg/dL, n (%)",Week 26 - Pre-Infusion,8 (100%)
same,"Serum Uric Acid, Change from Baseline, Mean (SD)",Week 28 - Pre-Infusion,−9.11 (3.293) mg/dL
same,"Serum Uric Acid, Change from Baseline, Median",Week 28 - Pre-Infusion,-8.95 mg/dL
same,"Serum Uric Acid, Observed, Mean (SD)",Week 28 - Pre-Infusion,0.30 (0.000) mg/dL
same,"Serum Uric Acid, Observed, Median",Week 28 - Pre-Infusion,0.30 mg/dL
same,"sUA <6 mg/dL, n (%)",Week 28 - Pre-Infusion,8 (100%)
same,"Serum Uric Acid, Change from Baseline, Mean (SD)",Week 30 - Pre-Infusion,−9.11 (3.293) mg/dL
same,"Serum Uric Acid, Change from Baseline, Median",Week 30 - Pre-Infusion,-8.95 mg/dL
same,"Serum Uric Acid, Observed, Mean (SD)",Week 30 - Pre-Infusion,0.30 (0.000) mg/dL
same,"Serum Uric Acid, Observed, Median",Week 30 - Pre-Infusion,0.30 mg/dL
same,"sUA <6 mg/dL, n (%)",Week 30 - Pre-Infusion,8 (100%)
same,"Serum Uric Acid, Change from Baseline, Mean (SD)",Week 32 - Post-Infusion,−9.11 (3.293) mg/dL
same,"Serum Uric Acid, Change from Baseline, Median",Week 32 - Post-Infusion,-8.95 mg/dL
same,"Serum Uric Acid, Observed, Mean (SD)",Week 32 - Post-Infusion,0.30 (0.000) mg/dL
same,"Serum Uric Acid, Observed, Median",Week 32 - Post-Infusion,0.30 mg/dL
same,"sUA <6 mg/dL, n (%)",Week 32 - Post-Infusion,8 (100%)
same,"Serum Uric Acid, Change from Baseline, Mean (SD)",Week 32 - Pre-Infusion,−8.99 (2.961) mg/dL
same,"Serum Uric Acid, Change from Baseline, Median",Week 32 - Pre-Infusion,-8.95 mg/dL
same,"Serum Uric Acid, Observed, Mean (SD)",Week 32 - Pre-Infusion,0.30 (0.000) mg/dL
same,"Serum Uric Acid, Observed, Median",Week 32 - Pre-Infusion,0.30 mg/dL
same,"sUA <6 mg/dL, n (%)",Week 32 - Pre-Infusion,10 (100%)
same,"Serum Uric Acid, Change from Baseline, Mean (SD)",Week 34 - Post-Infusion,−9.11 (3.293) mg/dL
same,"Serum Uric Acid, Change from Baseline, Median",Week 34 - Post-Infusion,-8.95 mg/dL
same,"Serum Uric Acid, Observed, Mean (SD)",Week 34 - Post-Infusion,0.30 (0.000) mg/dL
same,"Serum Uric Acid, Observed, Median",Week 34 - Post-Infusion,0.30 mg/dL
same,"sUA <6 mg/dL, n (%)",Week 34 - Post-Infusion,8 (100%)
same,"Serum Uric Acid, Change from Baseline, Mean (SD)",Week 34 - Pre-Infusion,−8.47 (3.248) mg/dL
same,"Serum Uric Acid, Change from Baseline, Median",Week 34 - Pre-Infusion,-7.95 mg/dL
